From patent US20030161893A1, “PTPase inhibitors and methods of using the same” (priority 2001, published 2003)
Where “and” joins values, the source holds several entries; their conditions need not be identical. Equal values may be shown once. Values belong to the compound of their own block, whether it stands above or below them.

Tests used:
HL-60 cells = test: HL-60 cell differentiation (NBT reduction); format: cell-based, human; conditions: day 6; sodium stibogluconate 400 μg/ml, GM-CSF 25 ng/ml, ATRA
Experimental: (§1) Differentiation of AML cell lines was assessed by their ability to produce superoxide as measured by reduction of NBT to formazan and by analysis of expression of CD11b surface marker by flow cytometry. For NBT reduction, each cell suspension was mixed with an equal volume of solution containing 1 mg/ml of NBT (Sigma) and 2.5 μg/ml of TPA for 30 minutes at 37° C. After incubation, cells containing the purple formazan deposits and cells devoid of NBT-reducing activity (white cells) in each sample were determined by counting 200 cells under microscope. Data is expressed as a percentage based on the following ratio: purple cells/purple+white cells. For analysis of cell surface antigens, cells were exposed to phycoerythrin (PE)-conjugated murine anti-human CD11b (DAKO Corp., Carpinteria, Calif.). Analysis of fluorescence was performed on a FACScan flow cytometer (Beckton Dickinson, Mountain View, Calif.).

NB4 cells = test: NB4 cell growth (MTT), cell cycle and Annexin V; format: cell-based, human; conditions: 3 days; sodium stibogluconate 250 μg/ml, ATRA 1 μM
Experimental: The NB4 cell line (Lanotte et al., Blood 77, 1080 (1991)) was a gift from Dr. Dan Lindner of the Cleveland Clinic Foundation. […] and U937 cell lines were purchased from American Type Culture Collection (Rockville, Md.). These human […] cell lines were maintained in RPMI 1640 medium supplemented with 10% fetal calf serum (FCS). For cell proliferation assays, cells were cultured at 37° C. in 10% FCS medium containing various amounts of sodium stibogluconate for 6 days. The cell numbers in the cultures were determined by an MTT assay as described previously in Mosmann, J. Imunol. Methods 65, 55 (1983).
The cell cycle was analyzed by flow cytometry after 3 days of culture of NB4 cells in the absence or presence of sodium stibogluconate (250 μg/ml) or ATRA (1 μM). Briefly, the cells were fixed in cold ethanol and incubated for 30 minutes at 4° C. in the dark with a solution of […] propidium iodide, 1 mg/ml RNase and 0.1% NP-40. Analysis was performed immediately after staining using the CELLFIT program (Becton Dickinson, Mountain View, Calif.).
Annexin V staining of exposed membrane phospholipid phosphatidylserine (PS) was done using the Annexin V assay kit (Pharmingen, San Diego, Calif.). Briefly, NB4 cells were cultured in the 10% FCS RPMI 1640 medium in the absence or presence of sodium stibogluconate (250 μg/ml) or ATRA (1 μM) for 3 days. Cells were then washed in PBS twice and stained in binding buffer (10 mM Hepes, pH 7.4; 140 mM NaCl; 2.5 mM CaCl2) containing Annexin V-FITC and propidium iodide for 15 min. The reaction was stopped by adding 10 volumes of binding buffer and analyzed by FACS (Becton Dickinson Facsvantage).

U937 cells = test: U937 cell differentiation (NBT reduction); format: cell-based, human; conditions: day 6; sodium stibogluconate 400 μg/ml, GM-CSF 25 ng/ml, ATRA
Experimental: as §1

SHP-1 = target: T1, SHP-1 (Mus musculus, UniProt P29351); test: In vitro PTPase assay, GST/SHP-1 fusion protein; format: biochemical
T1 construct: made in house
Experimental: In vitro PTPase activities were measured using the commercial protein tyrosine phosphatase assay kit (Upstate Biotechnology, Inc. (“UBI”)) following established procedure known to one of skill in the art. […] 100 μl of Malachite Green solution was added and incubated for 5 minutes, and the absorbance at 660 nm was measured after 5 minutes.
The beads were then either subjected to in vitro PTPase assays or washed 3 times in Tris buffer then subjected to in vitro PTPase assays.
Briefly, individual PTPases (0.1 μg/reaction) in 50 μL of PTPase buffer (50 mM Tris, pH 7.4) were incubated at 22° C. for 10 minutes or as indicated in the absence or presence of inhibitory compounds. […] […] […] Relative PTPase activities were calculated based on the formula: (PTPase activity in the presence of an inhibitory compound/PTPase activity in the absence of the compound)×100%. To assess the reversibility of PTPase inhibition, GST fusion proteins of the PTPases bound on glutathione beads (Pharmacia) were pre-incubated with cold Tris buffer (50 mM Tris, pH 7.0) or Tris buffer containing the inhibitor at 4° C. for 30 minutes. The beads were then washed three times in cold Tris buffer or not washed prior to subjecting to in vitro PTPase assays.

PRL-3 = target: T2, PRL-3 (Homo sapiens, UniProt O75365); test: In vitro PTPase assay, recombinant PRL-3; format: biochemical; conditions: DiFMUP, comparable conditions
T2 construct: cDNAs of human PRL-1, PRL-2 and PRL-3 coding region were derived by RT-PCR from H9 cells; made in house; host or cells: DH5a bacteria (E. coli)
T2 sequence (O75365 whole entry): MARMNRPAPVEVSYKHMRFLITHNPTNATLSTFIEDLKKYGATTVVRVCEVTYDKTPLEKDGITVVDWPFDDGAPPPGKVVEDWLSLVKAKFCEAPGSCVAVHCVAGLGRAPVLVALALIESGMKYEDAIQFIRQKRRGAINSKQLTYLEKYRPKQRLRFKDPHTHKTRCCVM
From the text: Sodium stibogluconate, suramin, sodium orth ovanadate and GST fusion protein of SHP-1 have been described previously (Pathak et al., J. Imumol. 167, 3391 (2001)). Meglumine antimonate was obtained from Aventis. cDNAs of human PRL-1, PRL-2 and PRL-3 coding region were derived by RT-PCR from H9 cells (Safai, et al., Lancet 1, 1438 (1984)) and inserted in frame into the pGEX vector. cDNA of PRL-1R86 was generated by recombinant DNA technique using PRL-1 cDNA as template following established procedures (Jiao, et al., Mol. Cell. Biol. 16, 6985 (1996)). GST fusion proteins of the PRL phosphatases were prepared from DH5a bacteria transformed with the pGEX fusion protein constructs as described previously (Yi, et al., Mol. Cell. Biol. 12, 836 (1992)). cDNAs encoding the PRLs tagged at the N-termini with the Flag epitope (Castrucci, et al., J. Virol. 66, 4647 (1992)) were generated via recombinant DNA technique, sequenced to confirm their identities and cloned into the pBabepuro vector (Yang, et al., Blood 91, 3746 (1998)). Anti-Flag monoclonal antibody (M2, Sigma) was purchased from a commercial source. A synthetic phosphotyrosine peptide (Arg-Arg-Leu-Ile-Glu-Asp-Ala-Gle-Tyr-Ala-Ala-Arg-Gly (SEQ ID NO: 3), wherein the tyrosine is phosphorylated; UBI) and DiFMUP (6, 8-difluoro-4-methylumbelliferyl phosphate, Molecular Probes) were purchased as substrates for PTPase assays.
In vitro PTPase assays were used to determine the effects of compounds on recombinant PTPases, following established procedures using a synthetic phosphotyrosine peptide or DiFMUP as the substrate (Pathak et al., J. Imumol. 167, 3391 (2001)). Briefly, individual PTPases (0.1 μg/reaction) in 50 μL of PTPase buffer (50 mM Tris, pH 7.4) were incubated at 22° C. for 10 minutes or as indicated in the absence or presence of inhibitory compounds. Substrates (0.2 mM phosphotyrosine peptide) were then added and allowed to react at 22° C. for 18 hrs. PTPase activity of individual reactions was measured by adding 100 μL of malachite green solution (UBI) and then quantifying the amounts of free phosphate cleaved by the PTPase from the peptide substrate by spectrometry (OD660 nm). PTPase assays using DiFMUP as a substrate were conducted following a previously described procedure (Matter, et al., Biochem. Biophys. Res. Comm. 283, 1061 (2001)). Relative PTPase activities were calculated based on the formula: (PTPase activity in the presence of an inhibitory compound/PTPase activity in the absence of the compound)×100%. To assess the reversibility of PTPase inhibition, GST fusion proteins of the PTPases bound on glutathione beads (Pharmacia) were pre-incubated with cold Tris buffer (50 mM Tris, pH 7.0) or Tris buffer containing the inhibitor at 4° C. for 30 minutes. The beads were then washed three times in cold Tris buffer or not washed prior to subjecting to in vitro PTPase assays.

MKP1 = target: T3, MKP1 (Homo sapiens, UniProt P28562); test: In vitro PTPase assay, GST/MKP1 fusion protein; format: biochemical
T3 construct: a pGEX construct containing the coding region of MKP1 cDNA derived by RT-PCR; made in house; host or cells: DH5a bacteria (E. coli)
T3 sequence (P28562 1-367): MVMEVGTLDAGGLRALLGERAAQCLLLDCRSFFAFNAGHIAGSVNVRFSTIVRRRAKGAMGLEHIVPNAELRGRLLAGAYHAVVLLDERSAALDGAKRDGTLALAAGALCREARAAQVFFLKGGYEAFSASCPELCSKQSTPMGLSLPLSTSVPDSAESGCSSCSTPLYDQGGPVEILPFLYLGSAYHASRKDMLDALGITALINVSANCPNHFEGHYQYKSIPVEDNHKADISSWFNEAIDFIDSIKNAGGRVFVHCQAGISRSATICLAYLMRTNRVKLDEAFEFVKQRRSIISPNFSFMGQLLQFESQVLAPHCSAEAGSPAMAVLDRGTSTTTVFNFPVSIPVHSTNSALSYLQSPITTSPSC

GSTm8 = test: In vitro PTPase assay, GSTm8; format: biochemical; conditions: 3-4 μg/ml or 10-100 μg/ml
Baf3 cells = test: Baf3 cell proliferation assay; format: cell-based, murine
Experimental: The murine hematopoietic cell line Baf3 was maintained in RPMI 1640 medium supplemented with 10% fetal calf serum (FCS) and murine IL-3 (20 units/ml) as described previously in Damen et al., J. Biol. Chem. 270, 23402 (1995). Human myeloid cell line TF-1 was maintained in RPMI 1640 supplemented with 10% FCS and 40 ng/ml of recombinant human GM-CSF as described previously in Thomassen et al., Clin. Immunol. 95, 85 (2000). For cell proliferation assays, cells were washed in 10% FCS medium twice, resuspended in 10% FCS medium, incubated at 37° C. for 16 hours, and then cultured at 37° C. in 10% FCS medium containing various amounts of cytokines, sodium stibogluconate, or potassium antimonyl tartrate for 3-6 days as indicated. The cell numbers in proliferation assays were determined by an MTT assay or by microscopic cell counting as indicated.

Jak2/Stat5 = test: IL-3-induced Jak2/Stat5 tyrosine phosphorylation in Baf3 cells; format: cell-based, murine
Experimental: For induction of cellular protein phosphorylation by sodium stibogluconate or pervanadate, Baf3 cells were incubated in 0.1% FCS-RPMI 1640 medium at 37° C. for 16 hours. The cells were then washed twice in RPMI 1640 medium and incubated with sodium stibogluconate or pervanandate (0.1 mM) for various times prior to termination by lysing cells in cold lysis buffer (50 mM Tris, pH 7.4; 150 mM NaCl; 0.2 mM Na3VO4; 20 mm NaF; 1% Nonidet P-40; 2 mM PMSF; 20 μg/ml of Aprotinin and 1 mM of sodium molybdic acid). To determine the effect of sodium stibogluconate or potassium antimonyl tartrate on IL-3-induced Jak/Stat phosphorylation, Baf3 cells were deprived of the growth factor for 16 hours in 0.1% FCS RPMI 1640 medium and then incubated with or without sodium stibogluconate or potassium antimonyl tartrate for 10 minutes. IL-3 was next added to the cell suspension and incubated for various times. The Cells were then harvested and lysed in cold lysis buffer at 4° C. for 45 minutes. Total cell lysates (TCL) were separated in SDS-PAGE gels, blotted onto nitrocellulose membrane (Schleicher & Schuell), probed with specific antibodies and detected using an enhanced chemiluminescence kit (ECL, Amersham, Arlington Heights, Ill.).

PTP1B = target: T4, PTP1B (Homo sapiens, UniProt P18031); test: In vitro PTPase assay, GST/PTP1B fusion protein; format: biochemical; conditions: 1-1,000 μg/ml
T4 construct: purchased Upstate Biotechnology Inc. (Lake Placid, N.Y.)
T4 sequence (P18031 whole entry, species assumed, the tested form may be a part): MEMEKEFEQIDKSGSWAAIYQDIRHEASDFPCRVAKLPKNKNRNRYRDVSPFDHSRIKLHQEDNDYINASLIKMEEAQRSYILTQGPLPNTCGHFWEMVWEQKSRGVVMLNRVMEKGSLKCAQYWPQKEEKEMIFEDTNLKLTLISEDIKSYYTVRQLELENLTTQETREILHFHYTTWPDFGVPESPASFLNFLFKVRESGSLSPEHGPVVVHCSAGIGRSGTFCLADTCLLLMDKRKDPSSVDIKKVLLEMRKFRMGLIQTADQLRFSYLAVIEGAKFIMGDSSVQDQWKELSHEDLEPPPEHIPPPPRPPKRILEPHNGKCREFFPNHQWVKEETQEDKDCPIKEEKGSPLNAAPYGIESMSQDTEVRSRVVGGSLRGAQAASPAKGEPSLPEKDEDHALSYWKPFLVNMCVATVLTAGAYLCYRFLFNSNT
Experimental: In vitro PTPase activities were measured using the commercial protein tyrosine phosphatase assay kit (Upstate Biotechnology, Inc. (“UBI”)) following established procedure known to one of skill in the art. This assay measures the in vitro dephosphorylation of a synthetic phosphotyrosine peptide of the sequence Arg-Arg-Leu-Ile-Glu-Asp-Ala-Gle-Tyr-Ala-Ala-Arg-Gly, wherein the tyrosine is phosphorylated (SEQ ID NO: 3). Briefly, 0.01 μg of GST/PTPase fusion proteins was incubated in 50 μl of Tris buffer (10 mM Tris, pH 7.4) containing different concentrations of inhibitors or chemicals (0-1,000 μg/ml) at 22° C. for 10 minutes, followed by addition of 0.2 mM of the phosphotyrosine peptide and incubation at 22° C. for 18 hours. 100 μl of Malachite Green solution was added and incubated for 5 minutes, and the absorbance at 660 nm was measured after 5 minutes.

Compound: CC1=C(/C=C/C(C)=C/C=C/C(C)=C/C(=O)O)C(C)(C)CCC1 [ATRA, All-trans-retinoic acid]
NBT-positive (differentiated) HL-60 cells (HL-60 cells): 90%
cell cycle of NB4 cells (NB4 cells): arrested at GI phase
NBT-positive (differentiated) U937 cells (U937 cells): 72% and 73%

inhibition of SHP-1 compared with sodium stibogluconate (SHP-1; comparable conditions): less effective
inhibition of PRL-3 with DiFMUP substrate (PRL-3): less effective
Compound: Cc1ccc(C(=O)Nc2ccc(S(=O)(=O)O)c3cc(S(=O)(=O)O)cc(S(=O)(=O)O)c23)cc1NC(=O)c1cccc(NC(=O)Nc2cccc(C(=O)Nc3cc(C(=O)Nc4ccc(S(=O)(=O)O)c5cc(S(=O)(=O)O)cc(S(=O)(=O)O)c45)ccc3C)c2)c1 [Suramin]
reversibility of SHP-1 inhibition by washing (SHP-1; pre-incubated at 4° C. 30 minutes, beads washed 3 times): almost completely removed by the washing process

inhibition of MKP1 (MKP1): substantial inhibition
inhibitory activity against SHP-1 (SHP-1; 3-4 μg/ml or 10-100 μg/ml): no obvious inhibitory activity
inhibitory activity against GSTm8 (GSTm8): no obvious inhibitory activity
Compound: c1ccc([C@H]2CN3CCSC3=N2)cc1 [levamisole]

Compound: O.O.O.O=C([O-])[C@H]([O-])[C@@H]([O-])C(=O)[O-].O=C([O-])[C@H]([O-])[C@@H]([O-])C(=O)[O-].[K+].[K+].[Sb+3].[Sb+3] [potassium antimonyl tartrate]
inhibition of SHP-1 (SHP-1; 1-1,000 μg/ml): no detectable inhibition
toxicity against Baf3 cells (Baf3 cells): marked toxicity
IL-3-induced proliferation of Baf3 cells (Baf3 cells; IL-3 10 units/ml, three days): failed to enhance
IL-3-induced Stat5 phosphorylation (Jak2/Stat5): failed to enhance
inhibition of PTP1B (PTP1B): no detectable inhibition

Compound: [Na+].[Na+].[Na+].[O]=[V]([O-])([O-])[O-] [sodium orthovanadate]
inhibition of PRL-3 with DiFMUP substrate (PRL-3): less effective
